Source: ChEMBL document CHEMBL5338784, “Non-steroidal CYP17A1 Inhibitors: Discovery and Assessment” (J Med Chem, 2023)
pIC50, pKi: −log10 of the molar value. One block for each compound: values may come before it.

Experiments:
[1] = molecular target: T1, Steroid 17-alpha-hydroxylase/17,20 lyase (Rattus norvegicus, UniProt P11715); test: Inhibiton of Sprague-Dawley rat testicular microsomal suspension CYP17A1 C17, 20 lyase activity using [1,2-3H]-17alpha-hydroxyprogesterone as substrate incubated for 15 mins in presence of NADPH generating system; format: ADME, microsomes, Testis, Microsome
T1 sequence (P11715 whole entry): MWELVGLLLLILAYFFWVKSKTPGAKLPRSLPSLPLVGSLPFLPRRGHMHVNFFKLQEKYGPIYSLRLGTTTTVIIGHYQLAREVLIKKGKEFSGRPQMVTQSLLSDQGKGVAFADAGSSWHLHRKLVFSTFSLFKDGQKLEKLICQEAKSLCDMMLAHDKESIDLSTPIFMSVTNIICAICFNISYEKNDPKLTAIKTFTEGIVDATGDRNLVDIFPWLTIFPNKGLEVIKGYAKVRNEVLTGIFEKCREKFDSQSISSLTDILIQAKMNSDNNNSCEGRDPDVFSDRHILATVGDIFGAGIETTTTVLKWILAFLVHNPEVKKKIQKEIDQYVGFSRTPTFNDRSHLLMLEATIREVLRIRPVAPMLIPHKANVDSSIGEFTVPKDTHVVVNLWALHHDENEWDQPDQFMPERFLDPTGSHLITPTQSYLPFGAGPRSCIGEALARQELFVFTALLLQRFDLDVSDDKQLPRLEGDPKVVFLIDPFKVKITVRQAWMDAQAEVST

[2] = molecular target: T2, Steroid 17-alpha-hydroxylase/17,20 lyase (Homo sapiens, UniProt P05093); test: Inhibition of human testis C17, 20 lyase activity using 17alpha-[1,2-3H] hydroxyprogesterone incubated for 30 mins in presence of NADPH generating system; format: tissue-based
T2 sequence (P05093 whole entry): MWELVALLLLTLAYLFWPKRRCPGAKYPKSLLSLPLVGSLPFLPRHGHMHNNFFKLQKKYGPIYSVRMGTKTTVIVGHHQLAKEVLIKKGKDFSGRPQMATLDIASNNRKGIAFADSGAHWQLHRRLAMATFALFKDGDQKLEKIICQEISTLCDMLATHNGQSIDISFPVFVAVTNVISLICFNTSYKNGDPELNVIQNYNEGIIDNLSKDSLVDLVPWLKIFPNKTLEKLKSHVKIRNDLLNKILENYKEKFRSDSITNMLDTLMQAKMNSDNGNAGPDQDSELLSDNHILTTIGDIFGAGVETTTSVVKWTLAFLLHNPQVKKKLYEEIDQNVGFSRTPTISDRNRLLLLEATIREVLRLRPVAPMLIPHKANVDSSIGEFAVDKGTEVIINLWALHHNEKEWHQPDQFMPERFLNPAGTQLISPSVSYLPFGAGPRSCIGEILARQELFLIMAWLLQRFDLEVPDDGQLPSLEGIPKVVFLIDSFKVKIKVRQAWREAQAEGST

[3] = molecular target: T1, Steroid 17-alpha-hydroxylase/17,20 lyase; test: Binding affinity to Sprague-Dawley rat testicular microsome CYP17A1 assessed as inhibition constant; format: ADME, microsomes, Testis
Cytochrome P450 3A4 = Cytochrome P450 3A4 (Homo sapiens, UniProt P08684); test: Inhibition of human recombinant CYP3A4; format: ADME
Cytochrome P450 2D6 = Cytochrome P450 2D6 (Homo sapiens, UniProt P10635); test: Inhibition of human recombinant CYP2D6; format: ADME
[4] = molecular target: T2, Steroid 17-alpha-hydroxylase/17,20 lyase; test: Inhibition of human testicular microsomal C17, 20 lyase activity using 17alpha-[1,2,6,7-3H] hydroxyprogesterone; format: microsomes, Testis, Microsome
[5] = molecular target: T2, Steroid 17-alpha-hydroxylase/17,20 lyase; test: Inhibition of human CYP17 C17,20-lyase activity; format: ADME
[6] = molecular target: T1, Steroid 17-alpha-hydroxylase/17,20 lyase; test: Inhibition of rat testicular CYP17; format: ADME, tissue-based, Testis
[7] = molecular target: T2, Steroid 17-alpha-hydroxylase/17,20 lyase; test: Inhibition of human testicular CYP17; format: ADME, tissue-based, Testis
Serum = test: In vivo inhibition of testosterone in Sprague-Dawley rat assessed as serum testosterone level at 25 mg/kg, po measured after 5 hrs by radioimmuno assay relative to control; format: functional
[8] = molecular target: T1, Steroid 17-alpha-hydroxylase/17,20 lyase; test: Inhibition of Spague-Dawley rat testicular microsome CYP17 using progesterone as substrate preincubated for 5 mins followed by enzyme addition measured after 20 mins in presence of NADPH; format: ADME, microsomes, Testis
[9] = molecular target: T2, Steroid 17-alpha-hydroxylase/17,20 lyase; test: Inhibiton of human CYP17A1 C17, 20 lyase activity expressed in Escherichia coli using [1,2-3H]-17alpha-hydroxyprogesterone as substrate incubated for 15 mins in presence of NADPH generating system; format: ADME
[10] = molecular target: T1, Steroid 17-alpha-hydroxylase/17,20 lyase; test: Inhibiton of Sprague-Dawley rat testicular microsomal suspension CYP17A1 17-alpha hydroxylase activity using radiolabelled progesterone as substrate preincubated for 5 mins followed by enzyme addition incubated for 15 mins in presence of NADPH generating system; format: ADME, microsomes, Testis, Microsome
[11] = molecular target: T1, Steroid 17-alpha-hydroxylase/17,20 lyase; test: Inhibiton of Sprague-Dawley rat testicular microsomal suspension CYP17A1 C17, 20 lyase activity using radiolabelled 17alpha-hydroxyprogesterone as substrate preincubated for 5 mins followed by enzyme addition incubated for 30 mins in presence of NADPH generating system; format: ADME, microsomes, Testis, Microsome
[12] = molecular target: T2, Steroid 17-alpha-hydroxylase/17,20 lyase; test: Inhibition of human recombinant CYP17A1 C17,20-lyase activity expressed in Escherichia coli using [1,2-3H]-17alpha-hydroxypregnenolone as substrate incubated for 15 mins; format: ADME
[13] = molecular target: T2, Steroid 17-alpha-hydroxylase/17,20 lyase; test: Inhibition of human testicular microsome CYP17; format: ADME, microsomes, Testis
[14] = molecular target: T1, Steroid 17-alpha-hydroxylase/17,20 lyase; test: Inhibition of rat CYP17; format: ADME

Sequence of Cytochrome P450 2D6 (P10635 whole entry): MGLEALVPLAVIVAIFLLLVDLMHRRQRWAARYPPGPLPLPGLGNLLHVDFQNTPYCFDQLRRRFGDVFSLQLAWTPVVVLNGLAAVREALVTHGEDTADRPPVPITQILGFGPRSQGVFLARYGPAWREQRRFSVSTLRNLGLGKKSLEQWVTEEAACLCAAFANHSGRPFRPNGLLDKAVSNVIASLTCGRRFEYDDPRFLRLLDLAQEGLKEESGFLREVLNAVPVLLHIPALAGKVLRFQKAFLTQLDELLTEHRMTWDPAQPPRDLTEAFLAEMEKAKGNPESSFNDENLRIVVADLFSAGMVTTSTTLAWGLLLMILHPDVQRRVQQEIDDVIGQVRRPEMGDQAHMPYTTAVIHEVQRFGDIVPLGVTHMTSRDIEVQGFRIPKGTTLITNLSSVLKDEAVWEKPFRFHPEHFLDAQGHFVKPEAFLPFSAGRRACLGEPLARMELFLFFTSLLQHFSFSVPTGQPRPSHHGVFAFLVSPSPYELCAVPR
Sequence of Cytochrome P450 3A4 (P08684 whole entry): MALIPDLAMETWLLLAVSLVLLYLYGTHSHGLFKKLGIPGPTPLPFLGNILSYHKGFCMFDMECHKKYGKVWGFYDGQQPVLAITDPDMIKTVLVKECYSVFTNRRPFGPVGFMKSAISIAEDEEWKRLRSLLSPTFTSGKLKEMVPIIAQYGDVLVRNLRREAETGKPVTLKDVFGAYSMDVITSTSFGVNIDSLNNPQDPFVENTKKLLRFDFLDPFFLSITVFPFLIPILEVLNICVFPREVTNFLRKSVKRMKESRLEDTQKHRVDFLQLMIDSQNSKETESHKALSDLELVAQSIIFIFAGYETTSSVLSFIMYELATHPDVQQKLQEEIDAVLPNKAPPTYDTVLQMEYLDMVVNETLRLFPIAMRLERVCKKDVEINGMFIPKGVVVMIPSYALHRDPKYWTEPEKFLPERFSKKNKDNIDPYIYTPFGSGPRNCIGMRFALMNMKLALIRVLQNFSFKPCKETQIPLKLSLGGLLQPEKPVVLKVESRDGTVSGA

pIC50 [1]: 6.64
SMILES: C(=C\c1cccc(-n2ccnc2)c1)/c1ccccc1

pIC50 (Cytochrome P450 3A4): < 5.00
pIC50 (Cytochrome P450 2D6): < 5.00
SMILES: c1cncc(Nc2ccc(-n3cnc4ccccc43)cc2)c1

pIC50 [5]: 4.60
SMILES: O=c1c(O)cc([C@H]2Oc3cc(O)cc(O)c3C[C@H]2O)cc2c([C@H]3Oc4cc(O)cc(O)c4C[C@H]3O)cc(O)c(O)c12 [THEAFLAVIN]

pIC50 [6]: 6.27
pIC50 [7]: 6.62
SMILES: CC(c1ccc(-c2ccc(F)cc2)cc1)n1ccnc1 (stereo not given)

pIC50 [1]: 7.62
SMILES: C(=C/c1cccc(Cn2ccnc2)c1)/c1ccccc1
Ct (Serum): 135%

pIC50 [8]: 4.89
SMILES: COc1cccc2c1CCC(c1ccncc1)C2=O (stereo not given)

pIC50 [9]: 7.68
SMILES: Cc1c(/C=C/[C@H](C)c2c[nH]cn2)sc2ccc(F)cc12
Ct (Serum): 2%

pIC50 [10]: 6.30
pIC50 [11]: 7.24
SMILES: Brc1ccc(CCCCCn2ccnc2)cc1

pIC50 [12]: 7.96
SMILES: COc1ccc(-c2ccc([C@](O)(c3c[nH]cn3)C(C)C)cc2)cc1OC

The remaining lines, values behind:

SMILES: Clc1ccccc1C(c1cc2cc(Br)ccc2o1)n1ccnc1 (stereo not given)
pIC50 [2]: 8.40

SMILES: O=C1c2cc(Cl)ccc2CCC1c1cccnc1 (stereo not given)
pKi [3]: 6.52

SMILES: Brc1cc(Br)c2oc(Cn3ccnc3)cc2c1
pIC50 [4]: 6.73

SMILES: CC1=C(c2cccnc2)Cc2cc(Cl)ccc21
pKi [3]: 7.40

SMILES: c1ccc(-c2ccc(Cn3ccnc3)cc2)cc1
pIC50 [13]: 6.00

SMILES: COc1ccc2c(c1)CCC(Cc1c[nH]cn1)C2 (stereo not given)
pIC50 [14]: 6.00
